According to PMC7204524 (Tetrahedron, 2020):

Molecular target: T1, T. brucei methionyl-tRNA synthetase (TbMetRS) (Trypanosoma brucei, UniProt Q38C91)
T1 sequence (Q38C91 1-773): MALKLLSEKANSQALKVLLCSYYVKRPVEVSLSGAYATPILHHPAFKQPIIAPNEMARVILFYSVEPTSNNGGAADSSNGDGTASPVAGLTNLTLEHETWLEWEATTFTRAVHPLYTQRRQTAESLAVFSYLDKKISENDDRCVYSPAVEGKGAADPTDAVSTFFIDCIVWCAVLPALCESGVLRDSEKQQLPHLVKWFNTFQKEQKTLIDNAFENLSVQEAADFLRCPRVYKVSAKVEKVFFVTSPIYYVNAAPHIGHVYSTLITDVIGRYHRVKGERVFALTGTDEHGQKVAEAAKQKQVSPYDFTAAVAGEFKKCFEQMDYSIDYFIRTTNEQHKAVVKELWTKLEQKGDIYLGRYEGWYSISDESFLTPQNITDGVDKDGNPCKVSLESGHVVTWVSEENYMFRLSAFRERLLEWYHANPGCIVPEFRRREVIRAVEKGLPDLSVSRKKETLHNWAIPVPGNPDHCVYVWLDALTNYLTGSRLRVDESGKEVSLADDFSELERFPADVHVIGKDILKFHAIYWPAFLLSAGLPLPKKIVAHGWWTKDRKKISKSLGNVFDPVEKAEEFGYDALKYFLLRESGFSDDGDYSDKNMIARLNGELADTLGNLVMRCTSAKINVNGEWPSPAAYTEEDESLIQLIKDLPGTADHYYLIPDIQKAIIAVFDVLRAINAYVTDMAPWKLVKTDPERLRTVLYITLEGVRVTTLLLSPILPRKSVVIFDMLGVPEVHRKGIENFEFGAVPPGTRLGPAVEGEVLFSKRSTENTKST
Experiment: colorimetric pyrophosphatase-coupled inhibition assay
Type: biochemical

## C[C@@H](O)[C@@H]1C(=O)N(CCc2c[nH]c3ccccc23)CC[C@@H]1N(C)Cc1cc(Cl)cc(Cl)c1 (racemic) [14a, (3R,4S)-1-(2-(1H-Indol-3-yl)ethyl)-4-((3,5-dichlorobenzyl)(methyl)amino)-3-((R)-1-hydroxyethyl)piperidin-2-one]
  %: 15–30 % inhibition at 200 μM
